# Where two headings read alike, the source gives them in different places.
# Legend:
# [1] = test system: Winter Barley cv Saffron; test: Safening of fertilisers, pot trial: phytotoxicity and vigour scores, winter barley; assay type: in vivo; conditions: for Phytotoxicity (0-9) (0 = Dead) + 14 Days / Phytotoxicity (0-9) (0 = Dead) + 28 Days: score 0-9, 0 = dead; for Vigour (0-9) (9 = Most Vigour) + 14 days / Vigour (0-9) + 28 Days: score 0-9
# Text: (§1) The safening system and the fertilizer were applied either simultaneously or sequentially.
# (§2) Sprayed: mid-tillering phase (GS23). Winter Wheat: cv Limerick, sown 4 Jun. […] Sprayed: mid-tillering phase (GS23). Lettuce: cv Set, sown 10 Jul. 2008, at one seed per pot, in John Innes No 1 compost. Date of spraying: 30 July; Dates of measurement: 7 August, 14 August, 28 August. Sprayed: 2 true leaf stage.
# [2] = test system: Winter Wheat cv Limerick; test: Safening of fertilisers, pot trial: phytotoxicity and vigour scores, winter wheat; assay type: in vivo; conditions: for Phytotoxicity (0-9) (0 = Dead) + 14 Days / Phytotoxicity (0-9) (0 = Dead) + 28 Days: score 0-9, 0 = dead; for Vigour (0-9) (9 = Most Vigour) + 14 days / Vigour (0-9) + 28 Days: score 0-9
# Text: as §1, §2
# [3] = test system: Lettuce cv Set; test: Safening of fertilisers, pot trial: phytotoxicity and vigour scores, lettuce; assay type: in vivo
# Text: as §1, §2
# [4] = test system: Oilseed rape cv Excalibur; conditions: for Greenness (0-9) (9 = Deeper Green) + 14 Days / Vigour (0-9) (9 = Most Vigour) + 14 days / Greenness (0-9) + 28 Days / Vigour (0-9) + 28 Days: score 0-9
# Text: (§3) Safening systems were applied to crops of oilseed rape and winter treated with various herbicides (Bifenox (with insecticide), Carbetamide, Propaquizafop, Chlorotoluron, Isoproturon, Flumioxazin). The safening system and the herbicide were applied to the crops either simultaneously or sequentially.
# (§4) Oilseed rape: cv Excalibur, sown 26 Apr. 2008, at two seeds per 9 cm pot, sown in normal pH multi-purpose compost. Date of spraying: 6 June; Dates of measurement/scoring: 13 June, 20 June, 5 July. Winter wheat: cv Alchemy, sown 23 Apr. 2008, at seven seeds per 9 cm pot, sown in normal pH multi-purpose compost. Date of spraying: 24 May; Dates of measurement/scoring: 31 May, 7 June, 21 June. SAF: at least one from class (f) each at <3 g/l, plus at least one from class (c).
# (§5) Statistical Layout: Randomised Complete Block trials, under glasshouse conditions, United Kingdom.
# [5] = test system: Winter wheat cv Alchemy; test: Safening of herbicides (Chlorotoluron, Isoproturon, Flumioxazin), winter wheat
# Text: as §3, §4, §5
# [6] = test system: Glycine max (Soybean); test: Root nodulation and safening, soybean, compost of normal pH (Example 7.2); conditions: compost of normal pH (6.5)
# Text: (§6) The safener/safening system and the fertiliser were applied to the crops either simultaneously or sequentially.
# (§7) Co=100% Cobalt Sulphate (20 g per litre and per hectare). FF1=20 g per litre Cobalt Sulphate (as per Co above) plus “Miracle-Gro” at xl recommended rate (applied at 15 g per 2.5 sq metres). Miracle-Gro contains: 24% N, 4% P, 13% K, plus 0.02% B, 0.03% Cu, 0.19% Fe, 0.05% Mn, 0.001% Mo and 0.03% Zn. FF2=20 g per litre Cobalt Sulphate plus Miracle-Gro at ×2 recommended rate. SAF: at least one from class (f) each at <3 g/l, plus at least one from class (c).
# Dates as per Example 7.1 above, but sown in compost of normal pH (6.5). Each treatment represents the mean values for 12 plants, within four replicates. Sowing density 110 kg/ha. Standard inoculant applied at sowing.
# [7] = test system: NAVY BEAN cv Mogex; test: Root nodulation and safening, navy bean, compost of low pH (Example 7.3); conditions: compost of low pH (5.0-5.5)
# Text: as §6, §7
# NAVY BEAN cv Mogex. Scored/Counted+28 Days after Spraying. Sown in Compost of low pH (5.0-5.5) on 29 Apr. 2008. Spray Date (VC)=27 May, V1 Date=16 June. Scored/Measured on 11 July. Each treatment represents the mean value of 12 plants, within four replicates. No inoculum applied.
# [8] = test system: PEA cv Ragtime; test: Root nodulation, rooting and safening, pea, compost of low pH (Examples 7.5 and 7.7)
# Text: as §6, §7
# PEA—TRIAL 5—cv Ragtime. Scored/Counted+28 Days after Spraying. Sown in Compost of Low pH (5.0-5.5) on 28 Apr. 2008. Spray Date (VC)=26 May, V1 Date=14 June. Scored/Measured on 9 July. […] No inoculum applied.
# Sowing details etc as per Example 7.5.
# [9] = test system: PEA cv Ragtime; test: Root nodulation and safening, pea, compost of normal pH (Example 7.6); conditions: compost of normal pH (6.5)
# Text: as §6, §7
# PEA—TRIAL 7.6—cv Ragtime. Dates as per Example 7.5 above, but sown in compost of normal pH (6.5). […] No inoculum was applied.
# [10] = Table 1.1, winter barley, phosphite fertiliser (KP)
# [11] = Table 1.2, winter barley, KP/ATS
# [12] = Table 1.3, winter barley, general fertilisers
# [13] = Table 1.4, winter wheat, phosphite fertiliser (KP)
# [14] = Table 1.5, winter wheat, KP/ATS
# [15] = Table 1.6, winter wheat, general fertilisers
# [16] = Table 1.7, lettuce, phosphite fertiliser (KP), score 0-9, 0 = dead
# [17] = Table 1.7, lettuce, phosphite fertiliser (KP), score 0-9
# [18] = Table 1.8, lettuce, KP/ATS, score 0-9
# [19] = Table 1.9, lettuce, general fertilisers, score 0-9, 0 = Dead
# [20] = herbicide Bifenox (with insecticide), Table 3.1
# [21] = herbicides Carbetamide and Propaquizafop, Table 3.2
# [22] = +28 days, herbicide Bifenox (with insecticide), Table 3.1
# [23] = +28 days, herbicides Carbetamide and Propaquizafop, Table 3.2
# [24] = compost of low pH (5.0-5.5), V1, score 0-9
# [25] = low pH compost, application at V1, 0-9 scale
structure (smiles),measurement,setting,value
"Nc1ccccc1C(=O)O [AN, anthranilic acid]",Phytotoxicity (0-9) (0 = Dead) + 14 Days,[1]; [10],7.5
same,Phytotoxicity (0-9) (0 = Dead) + 28 Days,[1]; [10],8.0
same,Vigour (0-9) (9 = Most Vigour) + 14 days,[1]; [10],7.0
same,Vigour (0-9) + 28 Days,[1]; [10],8.0
same,Phytotoxicity (0-9) (0 = Dead) + 14 Days,"[1]; Table 1.2, winter barley, KP + ammonium thiosulphate (KP/ATS)",7.5
same,Phytotoxicity (0-9) (0 = Dead) + 28 Days,[1]; [11],8.0
same,Vigour (0-9) (9 = Most Vigour) + 14 days,[1]; [11],7.0
same,Vigour (0-9) + 28 Days,[1]; [11],8.0
same,Phytotoxicity (0-9) (0 = Dead) + 14 Days,"[1]; Table 1.3, winter barley, general NPK fertilisers (GEN + KP, GENEX)",7.5
same,Phytotoxicity (0-9) (0 = Dead) + 28 Days,[1]; [12],8.0
same,Vigour (0-9) (9 = Most Vigour) + 14 days,[1]; [12],7.0
same,Vigour (0-9) + 28 Days,[1]; [12],8.0
same,Phytotoxicity (0-9) (0 = Dead) + 14 Days,[2]; [13],7.5
same,Phytotoxicity (0-9) (0 = Dead) + 28 Days,[2]; [13],8.0
same,Vigour (0-9) (9 = Most Vigour) + 14 days,[2]; [13],8.0
same,Vigour (0-9) + 28 Days,[2]; [13],8.5
same,Phytotoxicity (0-9) (0 = Dead) + 28 Days,[2]; [14],8.0
same,Vigour (0-9) (9 = Most Vigour) + 14 days,[2]; [14],8.0
same,Vigour (0-9) + 28 Days,[2]; [14],8.5
same,Phytotoxicity (0-9) (0 = Dead) + 14 Days,"[2]; Table 1.5, winter wheat, thiosulphate and phosphite fertilisers (KP/ATS)",7.5
same,Phytotoxicity (0-9) (0 = Dead) + 14 Days,"[2]; Table 1.6, winter wheat, general NPK fertilisers (GEN + KP, GENEX)",7.5
same,Phytotoxicity (0-9) (0 = Dead) + 28 Days,[2]; [15],8.0
same,Vigour (0-9) (9 = Most Vigour) + 14 days,[2]; [15],8.0
same,Vigour (0-9) + 28 Days,[2]; [15],8.5
same,Phytotoxicity (0-9) (0 = Dead) + 14 Days,[3]; [16],7.0
same,Phytotoxicity (0-9) (0 = Dead) + 28 Days,[3]; [16],7.0
same,Vigour (0-9) (9 = Most Vigour) + 14 days,[3]; [17],8.0
same,Vigour (0-9) + 28 Days,[3]; [17],8.0
same,Phytotoxicity (0-9) (0 = Dead) + 14 Days,"[3]; Table 1.8, lettuce, KP + ammonium thiosulphate (KP/ATS), score 0-9, 0 = dead",7.0
same,Phytotoxicity (0-9) (0 = Dead) + 28 Days,"[3]; Table 1.8, lettuce, KP/ATS, score 0-9, 0 = dead",7.0
same,Vigour (0-9) (9 = Most Vigour) + 14 days,[3]; [18],8.0
same,Vigour (0-9) + 28 Days,[3]; [18],8.0
same,Phytotoxicity (0-9) (0 = Dead) + 14 Days,[3]; [19],7.0
same,Phytotoxicity (0-9) (0 = Dead) + 28 Days,[3]; [19],7.0
same,Vigour (0-9) (9 = Most Vigour) + 14 days,"[3]; Table 1.9, lettuce, general fertilisers, score 0-9, 9 = Most Vigour",8.0
same,Vigour (0-9) + 28 Days,"[3]; Table 1.9, lettuce, general fertilisers, score 0-9",8.0
same,Phytotoxicity (0-9) (0 = Dead) + 14 Days,"[4]; score 0-9, 0 = dead, herbicide Bifenox (with insecticide), Table 3.1",9.0
same,Phytotoxicity (0-9) (0 = Dead) + 14 Days,"[4]; score 0-9, 0 = dead, herbicides Carbetamide and Propaquizafop, Table 3.2",9.0
same,Phytotoxicity (0-9) (0 = Dead) + 28 Days,"[4]; score 0-9, 0 = dead, +28 days, herbicide Bifenox (with insecticide), Table 3.1",8.0
same,Phytotoxicity (0-9) + 28 Days,"[4]; score 0-9, 0 = dead, +28 days, herbicides Carbetamide and Propaquizafop, Table 3.2",8.0
same,Greenness (0-9) (9 = Deeper Green) + 14 Days,[4]; [20],8.0
same,Vigour (0-9) (9 = Most Vigour) + 14 days,[4]; [20],9.0
same,Greenness (0-9) (9 = Deeper Green) + 14 Days,[4]; [21],8.0
same,Vigour (0-9) (9 = Most Vigour) + 14 days,[4]; [21],9.0
same,Greenness (0-9) + 28 Days,[4]; [22],8.0
same,Vigour (0-9) + 28 Days,[4]; [22],8.0
same,Greenness (0-9) + 28 Days,[4]; [23],8.0
same,Vigour (0-9) + 28 Days,[4]; [23],8.0
same,Greenness (0-9) (9 = Deeper Green) + 14 Days,"[5]; Table 3.3, no herbicide",8.0
same,Phytotoxicity (0-9) (0 = Dead) + 14 Days,"[5]; Table 3.3, no herbicide",9.0
same,Vigour (0-9) (9 = Most Vigour) + 14 days,"[5]; Table 3.3, no herbicide",9.0
same,Greenness (0-9) + 28 Days,"[5]; Table 3.3, no herbicide",8.0
same,Phytotoxicity (0-9) + 28 Days,"[5]; Table 3.3, no herbicide",8.0
same,Vigour (0-9) + 28 Days,"[5]; Table 3.3, no herbicide",8.0
same,Greenness (0-9) (9 = Deeper Green) + 14 Days,"[5]; Table 3.4, no herbicide",8.0
same,Phytotoxicity (0-9) (0 = Dead) + 14 Days,"[5]; Table 3.4, no herbicide",9.0
same,Vigour (0-9) (9 = Most Vigour) + 14 days,"[5]; Table 3.4, no herbicide",9.0
same,Greenness (0-9) + 28 Days,"[5]; Table 3.4, no herbicide",8.0
same,Phytotoxicity (0-9) + 28 Days,"[5]; Table 3.4, no herbicide",8.0
same,Vigour (0-9) + 28 Days,"[5]; Table 3.4, no herbicide",8.0
same,Greenness (0-9) (9 = Deeper Green) + 14 Days,"[5]; Table 3.5, no herbicide",8.0
same,Phytotoxicity (0-9) (0 = Dead) + 14 Days,"[5]; Table 3.5, no herbicide",9.0
same,Vigour (0-9) (9 = Most Vigour) + 14 days,"[5]; Table 3.5, no herbicide",9.0
same,Greenness (0-9) + 28 Days,"[5]; Table 3.5, no herbicide",8.0
same,Phytotoxicity (0-9) + 28 Days,"[5]; Table 3.5, no herbicide",8.0
same,Vigour (0-9) + 28 Days,"[5]; Table 3.5, no herbicide",8.0
same,Nodules Per Plant (V1),"[6]; V1, mean of 12 plants",34.2
same,Nodulation Score (0-9) (V1),"[6]; V1, score 0-9",5.9
same,Phyto-Toxicity Score (0-9) (V1),"[6]; V1, score 0-9",8.0
same,Vigour Score (0-9) (V1),"[6]; V1, score 0-9",6.7
same,Nodules Per Plant (VC),[6]; VC,33.3
same,Nod Score (0-9) (VC),"[6]; VC, score 0-9",5.8
same,Nodules Per Plant (V1),"[7]; V1, +28 days after spraying, no inoculum",20.9
same,Nodulation Score (0-9) (V1),"[7]; V1, score 0-9",3.3
same,Phyto-Toxicity Score (0-9) (V1),"[7]; V1, score 0-9",6.0
same,Vigour Score (0-9) (V1),"[7]; V1, score 0-9",6.0
same,Nodules Per Plant (VC),[7]; VC,23.4
same,Nod Score (0-9) (VC),"[7]; VC, score 0-9",3.8
same,Nodules Per Plant (V1),"[8]; compost of low pH (5.0-5.5), V1, +28 days after spraying, no inoculum",16.8
same,Nodulation Score (0-9) (V1),[8]; [24],5.0
same,Phyto-Toxicity Score (0-9) (V1),[8]; [24],5.2
same,Vigour Score (0-9) (V1),[8]; [24],5.5
same,Nodules Per Plant (VC),"[8]; compost of low pH (5.0-5.5), VC",17.3
same,Nod Score (0-9) (VC),"[8]; compost of low pH (5.0-5.5), VC, score 0-9",5.2
same,Nodules Per Plant (V1),"[8]; low pH compost, application at V1 (data from Example 7.5)",16.8
same,Nodulation Score (0-9) (V1),[8]; [25],5.0
same,Phyto-Toxicity Score (0-9) (V1),[8]; [25],5.2
same,Rooting Score (0-9) (V1),[8]; [25],4.2
same,Nodules Per Plant (V1),"[9]; V1, no inoculum",17.2
same,Nodulation Score (0-9) (V1),"[9]; V1, score 0-9",5.2
same,Phyto-Toxicity Score (0-9) (V1),"[9]; V1, score 0-9",7.0
same,Vigour Score (0-9) (V1),"[9]; V1, score 0-9",6.9
same,Nodules Per Plant (VC),[9]; VC,17.1
same,Nod Score (0-9) (VC),"[9]; VC, score 0-9",5.2
